The subject of experiment [1] is A549. As to the kind of experiment: Combination dose-matrix cell viability assay (CellTiter-Blue / alamar blue), synergy versus Loewe additivity, A549. Type of experiment: cell-based. Conditions: combination with Epothilone B; A549 cells; 72 hours; volume between measured and Loewe additive response surfaces; positive = synergistic. The protocol:
The following Examples illustrate the combinations with epothilone B that show a syngeristic effect. All combinations were tested in three (3) distinct cell lines as part of this collaboration: A549, a model of non-small cell lung carcinoma; SKOV-3, a model of ovarian cancer; and SKMEL-28, a model of malignant melanoma.
Cells were cultured in T-175 flasks in complete medium (RPMI-1640, 10% FBS, 1% Penn/Strep) at 37° C. and 5% CO2. Cells were removed from the flask by brief treatment with 0.25% trypsin. Trypsin was inactivated with media and cell count was adjusted appropriately. Cells were then seeded into 384-well microtiter plates (35 μL) at 1500 (A549) or 3,000 (SKOV-3, SKMEL-28) cells/well using a multi-drop 16-24 hours prior to compound addition for general screening. […]
A solution of 5% CellTiter-Blue (Promega) viability dye in complete medium was dispensed to assay plates using a multi-drop or 384-well pipettor. […] Plates were allowed to cool to room temperature for one hour before reading fluorescence intensity at 590 nm after excitation at 540 nm in a Wallac Victor-V plate reader.
The measure of effect was the inhibition of cell viability using an alamar blue viability assay relative to the untreated level (vehicle alone). For untreated and treated levels U and T, a fractional inhibition I=1−T/U was calculated. […]
For orientation: Alamar Blue is a resazurin reagent that responds to reducing activity.

Experiment [2] has as its system SKMEL28. As to the kind of experiment: Combination dose-matrix cell viability assay (CellTiter-Blue / alamar blue), synergy versus Loewe additivity, SKMEL-28. The experiment is classed as cell-based. To be noted: combination with Epothilone B; SKMEL28 cells; 72 hours; volume between measured and Loewe additive response surfaces; positive = synergistic. The text has this: The inhibition ranges from 0% at the untreated level to 100% when T=0.
This effectively calculates a volume between the measured and Loewe additive response surfaces, weighted towards high inhibition and corrected for varying dilution factors.

Turning to `O=C1C(SCCO)=C(SCCO)C(=O)c2ccccc21` [1,4-Naphthalenedione, 2,3-bis[(2-hydroxyethyl)thio]-(9CI)], the “Synergy Score” value in experiment [1] was 1.233.

With `Nc1nc(Cl)nc2c1ncn2C1CC(O)C(CO)O1` (stereo not drawn) [5-(6-amino-2-chloro-purin-9-yl)-2-(hydroxymethyl)oxolan-3-ol], the “Synergy Score” value in experiment [2] was 0.999.

Take “Butanedinitrile, bis[amino[(2-aminophenyl)thio]methylene]- (9CI)”: the “Synergy Score” value in experiment [1] was 1.199.

The values above are taken from patent US20110257206A1, “Combinations of Therapeutic Agents for Treating Cancer” (priority 2006, published 2011).
